Results taken from patent US20240024488A1, “COMPOUNDS AND USES THEREOF” (Foghorn Therapeutics Inc., priority 2020, published 2024).

Columns and labels:
[1] = molecular target: T1, HiBit-BRM fusion protein (Homo sapiens, UniProt P51531); experiment: HiBiT-BRM cell-based degradation assay (Nano-Glo HiBiT Lytic Detection, 24 h); conditions: HeLa cell line expressing HiBiT-BRM; for DC50: read-out: BRM HiBit Degradation IC50
T1 construct: expressed in transfected cells
How it was run: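 HeLa cells stably expressing HiBiT-BRM were dosed with compounds (10-point 3-fold dilutions, 30 μM final top dose, duplicate) for 24 h. HiBiT signal was read by lytic LgBiT complementation luminescence. Percent degradation was normalised to DMSO (high control) and 2 μM of a reference BRM/BRG1 degrader (low control).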

[2] = molecular target: T2, HiBit-BRG1 fusion protein (Homo sapiens, UniProt P51532); experiment: HiBiT-BRG1 cell-based degradation assay (Nano-Glo HiBiT Lytic Detection, 24 h); conditions: HeLa cell line expressing HiBit-BRG1 and LgBit; for Dmax: read-out: BRG1 HiBit Degradation Maximum (%); for DC50: read-out: BRMG1 HiBit Degradation IC50
T2 construct: expressed in transfected cells
How it was run: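 HeLa cells stably expressing HiBiT-BRG1 plus LgBit, 5000/well, treated 24 h, then lysed with Nano-Glo HiBiT lytic reagent and luminescence read. % degradation normalised between DMSO (high control) and 2 μM reference BRM/BRG1 degrader (low control).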

T1 sequence (P51531 whole entry, the tested form may be a part): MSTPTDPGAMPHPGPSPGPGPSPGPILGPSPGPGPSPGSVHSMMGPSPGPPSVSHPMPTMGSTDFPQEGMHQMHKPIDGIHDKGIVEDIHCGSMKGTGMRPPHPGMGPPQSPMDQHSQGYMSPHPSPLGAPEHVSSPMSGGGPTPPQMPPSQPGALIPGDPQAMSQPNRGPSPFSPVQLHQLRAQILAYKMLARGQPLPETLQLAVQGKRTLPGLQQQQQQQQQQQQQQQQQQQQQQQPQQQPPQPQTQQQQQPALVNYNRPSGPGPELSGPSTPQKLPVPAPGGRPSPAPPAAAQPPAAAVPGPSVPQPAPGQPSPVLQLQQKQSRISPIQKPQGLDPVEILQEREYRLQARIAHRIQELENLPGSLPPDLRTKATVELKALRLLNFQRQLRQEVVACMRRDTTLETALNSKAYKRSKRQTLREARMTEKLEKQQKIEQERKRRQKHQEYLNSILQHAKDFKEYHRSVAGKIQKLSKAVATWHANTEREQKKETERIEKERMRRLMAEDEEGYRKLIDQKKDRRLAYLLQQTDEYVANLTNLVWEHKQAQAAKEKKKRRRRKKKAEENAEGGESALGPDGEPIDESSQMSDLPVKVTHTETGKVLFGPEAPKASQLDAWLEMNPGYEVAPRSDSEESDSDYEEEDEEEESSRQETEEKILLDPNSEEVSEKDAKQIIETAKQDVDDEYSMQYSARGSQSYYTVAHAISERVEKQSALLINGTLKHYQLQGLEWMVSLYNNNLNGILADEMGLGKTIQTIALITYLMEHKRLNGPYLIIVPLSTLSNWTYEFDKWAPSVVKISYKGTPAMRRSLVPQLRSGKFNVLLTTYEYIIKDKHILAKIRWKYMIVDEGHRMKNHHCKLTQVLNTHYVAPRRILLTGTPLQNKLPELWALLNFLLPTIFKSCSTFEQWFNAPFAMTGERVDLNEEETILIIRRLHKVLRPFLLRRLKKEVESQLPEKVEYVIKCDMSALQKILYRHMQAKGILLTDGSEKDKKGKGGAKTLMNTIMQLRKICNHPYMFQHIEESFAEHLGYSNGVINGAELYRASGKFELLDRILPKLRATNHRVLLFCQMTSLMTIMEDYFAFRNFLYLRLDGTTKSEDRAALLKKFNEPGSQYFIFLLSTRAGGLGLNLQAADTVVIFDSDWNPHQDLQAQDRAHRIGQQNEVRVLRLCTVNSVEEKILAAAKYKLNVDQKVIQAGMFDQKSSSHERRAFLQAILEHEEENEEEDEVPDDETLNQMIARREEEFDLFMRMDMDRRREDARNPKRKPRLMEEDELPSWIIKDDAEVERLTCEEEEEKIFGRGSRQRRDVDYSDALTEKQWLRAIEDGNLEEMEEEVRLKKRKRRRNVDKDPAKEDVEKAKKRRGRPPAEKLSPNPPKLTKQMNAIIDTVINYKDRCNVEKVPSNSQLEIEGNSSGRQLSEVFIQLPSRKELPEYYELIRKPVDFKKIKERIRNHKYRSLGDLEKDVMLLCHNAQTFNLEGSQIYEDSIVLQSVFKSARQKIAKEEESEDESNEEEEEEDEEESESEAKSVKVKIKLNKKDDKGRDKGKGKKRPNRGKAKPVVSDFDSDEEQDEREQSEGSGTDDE
T2 sequence (P51532 whole entry, the tested form may be a part): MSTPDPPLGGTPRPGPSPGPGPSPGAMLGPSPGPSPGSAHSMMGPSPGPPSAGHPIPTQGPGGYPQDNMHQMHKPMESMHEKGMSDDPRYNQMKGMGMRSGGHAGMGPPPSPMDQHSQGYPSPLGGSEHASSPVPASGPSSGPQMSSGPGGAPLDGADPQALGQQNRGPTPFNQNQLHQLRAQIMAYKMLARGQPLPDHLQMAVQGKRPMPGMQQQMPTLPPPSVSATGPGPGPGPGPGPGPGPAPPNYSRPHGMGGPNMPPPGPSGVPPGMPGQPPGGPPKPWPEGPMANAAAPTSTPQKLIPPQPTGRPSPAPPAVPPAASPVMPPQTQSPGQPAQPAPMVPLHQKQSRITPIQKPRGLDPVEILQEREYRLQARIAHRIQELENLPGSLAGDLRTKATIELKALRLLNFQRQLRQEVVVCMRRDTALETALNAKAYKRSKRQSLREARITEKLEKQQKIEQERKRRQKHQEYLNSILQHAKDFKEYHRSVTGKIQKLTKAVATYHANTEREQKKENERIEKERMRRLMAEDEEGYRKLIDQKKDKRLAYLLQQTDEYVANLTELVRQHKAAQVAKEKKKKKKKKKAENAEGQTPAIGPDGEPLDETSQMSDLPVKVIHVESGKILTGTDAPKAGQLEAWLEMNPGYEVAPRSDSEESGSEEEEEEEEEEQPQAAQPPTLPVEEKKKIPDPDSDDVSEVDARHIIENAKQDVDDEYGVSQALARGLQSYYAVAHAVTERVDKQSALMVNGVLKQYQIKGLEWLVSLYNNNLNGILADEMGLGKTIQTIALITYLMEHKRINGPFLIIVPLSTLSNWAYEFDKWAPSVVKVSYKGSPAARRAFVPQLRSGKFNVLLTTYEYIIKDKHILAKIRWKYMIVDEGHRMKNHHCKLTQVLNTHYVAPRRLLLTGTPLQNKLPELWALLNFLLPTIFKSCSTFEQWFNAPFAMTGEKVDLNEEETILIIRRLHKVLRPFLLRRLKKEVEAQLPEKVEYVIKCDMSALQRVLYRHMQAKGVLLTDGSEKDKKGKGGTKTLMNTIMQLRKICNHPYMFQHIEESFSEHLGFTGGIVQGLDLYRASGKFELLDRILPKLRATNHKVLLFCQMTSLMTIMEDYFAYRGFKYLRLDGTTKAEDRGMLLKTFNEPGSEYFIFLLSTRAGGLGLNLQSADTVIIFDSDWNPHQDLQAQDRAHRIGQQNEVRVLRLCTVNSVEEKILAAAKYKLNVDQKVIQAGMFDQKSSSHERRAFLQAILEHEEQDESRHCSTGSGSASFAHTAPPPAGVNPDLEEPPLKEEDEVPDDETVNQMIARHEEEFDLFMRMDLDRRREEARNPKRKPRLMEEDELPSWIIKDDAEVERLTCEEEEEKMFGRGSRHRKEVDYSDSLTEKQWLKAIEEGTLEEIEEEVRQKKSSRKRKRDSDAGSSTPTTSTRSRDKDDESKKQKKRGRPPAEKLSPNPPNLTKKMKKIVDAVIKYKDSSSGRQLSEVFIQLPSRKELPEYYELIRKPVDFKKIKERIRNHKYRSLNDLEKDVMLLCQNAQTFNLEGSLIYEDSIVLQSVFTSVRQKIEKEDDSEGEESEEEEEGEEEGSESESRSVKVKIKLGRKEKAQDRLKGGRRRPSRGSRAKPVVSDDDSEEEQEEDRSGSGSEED

| Dmax [2] [%] | DC50 [1] [µM] | DC50 [2] [µM] | SMILES | BRM HiBit Degradation Maximum (%) [1] |
| --- | --- | --- | --- | --- |
| < 50 | – | – | Cc1ncsc1-c1ccc(CNC(=O)[C@@H]2C[C@@H](O)CN2C(=O)[C@@H](NC(=O)CCCC(=O)N[C@@H]2CCc3[nH]c4nnc(-c5ccccc5O)cc4c3C2)C(C)(C)C)cc1 [Compound 180, N1-((S)-1-((2S,4R)-4-hydroxy-2-((4-(4-methylthiazol-5-yl)benzyl)carbamoyl)pyrrolidin-1-yl)-3,3-dimethyl-1-oxobutan-2-yl)-N5-((R)-3-(2-hydroxyphenyl)-6,7,8,9-tetrahydro-5H-pyridazino[3,4-b]indol-6-yl)glutaramide] | C (“C” indicates maximum degradation < 50%) |
| < 50 | > 0.1 | – | Cc1ncsc1-c1ccc([C@H](C)NC(=O)[C@@H]2C[C@@H](O)CN2C(=O)[C@@H](c2cc(OCCN[C@@H]3CCc4[nH]c5nnc(-c6ccccc6O)cc5c4C3)no2)C(C)C)cc1 [Compound 181, (2S,4R)-4-hydroxy-1-((R)-2-(3-(2-(((R)-3-(2-hydroxyphenyl)-6,7,8,9-tetrahydro-5H-pyridazino[3,4-b]indol-6-yl)amino)ethoxy)isoxazol-5-yl)-3-methylbutanoyl)-N-((S)-1-(4-(4-methylthiazol-5-yl)phenyl)ethyl)pyrrolidine-2-carboxamide] | A (“A” indicates maximum degradation ≥ 75%) |
| < 50 | > 0.01 | > 1 | Cc1ncsc1-c1ccc(C(C)NC(=O)C2CC(O)CN2C(=O)C(c2cc(OCCN3CC4C(C3)C4c3c(C)[nH]c4nnc(-c5ccccc5O)cc34)no2)C(C)C)cc1 [Compound 255, (2S,4R)-4-hydroxy-1-((R)-2-(3-(2-((1R,5S,6S)-6-(3-(2-hydroxyphenyl)-6-methyl-7H-pyrrolo[2,3-c]pyridazin-5-yl)-3-azabicyclo[3.1.0]hexan-3-yl)ethoxy)isoxazol-5-yl)-3-methylbutanoyl)-N-((S)-1-(4-(4-methylthiazol-5-yl)phenyl)ethyl)pyrrolidine-2-carboxamide] | A (“A” indicates maximum degradation ≥ 75%) |
| > 75 | < 0.01 | > 0.01 | Cc1ncsc1-c1ccc([C@H](C)NC(=O)[C@@H]2C[C@@H](O)CN2C(=O)[C@@H](c2cc(OCCN3C[C@@H]4[C@H](C3)[C@H]4c3[nH]c4nnc(-c5ccccc5O)cc4c3C)no2)C(C)C)cc1 [Compound 272, (2S,4R)-4-hydroxy-1-((R)-2-(3-(2-((1R,5S,6R)-6-(3-(2-hydroxyphenyl)-5-methyl-7H-pyrrolo[2,3-c]pyridazin-6-yl)-3-azabicyclo[3.1.0]hexan-3-yl)ethoxy)isoxazol-5-yl)-3-methylbutanoyl)-N-((S)-1-(4-(4-methylthiazol-5-yl)phenyl)ethyl)pyrrolidine-2-carboxamide] | A (“A” indicates maximum degradation ≥ 75%) |
| < 50 | > 0.1 | – | Cc1ncsc1-c1ccc([C@H](C)NC(=O)[C@@H]2C[C@@H](O)CN2C(=O)[C@H](c2cc([C@H]3CC[C@@H](c4cnc(N5CCC(c6c[nH]c7nnc(-c8ccccc8O)cc67)CC5)nc4)CC3)no2)C(C)C)cc1 [Compound 309, (2S,4R)-4-hydroxy-N-[(1S)-1-[4-(4-methyl-1,3-thiazol-5-yl)phenyl]ethyl]-1-[(2S)-3-methyl-2-{3-[(1s,4s)-4-(2-{4-[3-(2-hydroxyphenyl)-7H-pyrrolo[2,3-c]pyridazin-5-yl]piperidin-1-yl}pyrimidin-5-yl)cyclohexyl]-1,2-oxazol-5-yl}butanoyl]pyrrolidine-2-carboxamide] | B (“B” indicates maximum degradation ≥ 50%) |
| > 50 | > 0.01 | > 0.1 | Cc1ncsc1-c1ccc([C@H](C)NC(=O)[C@@H]2C[C@@H](O)CN2C(=O)[C@H](c2cc([C@H]3CC[C@H](c4cnc(N5CCC(c6c[nH]c7nnc(-c8ccccc8O)cc67)CC5)nc4)CC3)no2)C(C)C)cc1 [Compound 310, (2S,4R)-4-hydroxy-N-[(1S)-1-[4-(4-methyl-1,3-thiazol-5-yl)phenyl]ethyl]-1-[(2S)-3-methyl-2-{3-[(1r,4r)-4-(2-{4-[3-(2-hydroxyphenyl)-7H-pyrrolo[2,3-c]pyridazin-5-yl]piperidin-1-yl}pyrimidin-5-yl)cyclohexyl]-1,2-oxazol-5-yl}butanoyl]pyrrolidine-2-carboxamide] | A (“A” indicates maximum degradation ≥ 75%) |
